What was measured:
blackgrass = experiment: Test B pre/postemergence blackgrass; assay type: in vivo, Alopecurus myosuroides
Summary of the method: (§1)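 Herbicidal effect was estimated by eye on a ten-point control scale after plants spent twelve to sixteen days in a greenhouse following soil or foliar treatment. Foliar sprays targeted plants at one to four leaves; all doses were formulated in a non-phytotoxic solvent with surfactant.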

wheat = experiment: Test B pre/postemergence wheat; assay type: in vivo, Triticum aestivum; conditions: for Plant response rating, Wheat: scale of 0 to 10 where 0 is no effect and 10 is complete control
Summary of the method: as §1

crabgrass = experiment: Test B pre/postemergence crabgrass; assay type: in vivo, Digitaria sanguinalis
Summary of the method: as §1

corn = experiment: Test B pre/postemergence corn; assay type: in vivo, Zea mays
Summary of the method: as §1

surinam grass = experiment: Test B pre/postemergence surinam grass; assay type: in vivo, Brachiaria decumbens
Summary of the method: as §1

velvetleaf = experiment: Test B pre/postemergence velvetleaf; assay type: in vivo, Abutilon theophrasti; conditions: for Plant response rating, Velvetleaf: scale of 0 to 10 where 0 is no effect and 10 is complete control
Summary of the method: as §1

sugar beet = experiment: Test B pre/postemergence sugar beet; assay type: in vivo, Beta vulgaris; conditions: for Plant response rating, Sugarbeets: scale of 0 to 10 where 0 is no effect and 10 is complete control
Summary of the method: as §1

duck salad = experiment: Test B flood test duck salad; assay type: in vivo, Heteranthera limosa
Summary of the method: (§2)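 Flood test on plants grown to the 2-leaf stage; treated plants kept in greenhouse twelve to sixteen days, then visually rated against controls on a 0 (no effect) to 10 (complete control) scale.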

smallflower flatsedge = experiment: Test B flood test smallflower flatsedge; assay type: in vivo, Cyperus difformis
Summary of the method: as §2

cocklebur = experiment: Test B pre/postemergence cocklebur; assay type: in vivo, Xanthium strumarium
Summary of the method: as §1

purple nutsedge = experiment: Test B pre/postemergence purple nutsedge; assay type: in vivo, Cyperus rotundus; conditions: for Plant response rating, Nutsedge: scale of 0 to 10 where 0 is no effect and 10 is complete control
Summary of the method: as §1

soybean = experiment: Test B pre/postemergence soybean; assay type: in vivo, Glycine max; conditions: for Plant response rating, Soybean: scale of 0 to 10 where 0 is no effect and 10 is complete control
Summary of the method: as §1

bedstraw = experiment: Test B pre/postemergence bedstraw; assay type: in vivo, Galium aparine
Summary of the method: as §1

rice = experiment: Test B flood test rice; assay type: in vivo, Oryza sativa
Summary of the method: as §2

wild oat = experiment: Test B pre/postemergence wild oat; assay type: in vivo, Avena fatua; conditions: for Plant response rating, Wild oats: scale of 0 to 10 where 0 is no effect and 10 is complete control
Summary of the method: as §1

bamyardgrass = experiment: Test B flood test barnyardgrass; assay type: in vivo, Echinochloa crus-galli
Summary of the method: as §2

[1] = Postemergence, Rate 250 g/ha, scale 0 to 10
[2] = Postemergence, Rate 500 g/ha, scale of 0 to 10 where 0 is no effect and 10 is complete control
[3] = Preemergence, Rate 62 g/ha, scale of 0 to 10 where 0 is no effect and 10 is complete control
[4] = Preemergence, Rate 125 g/ha, scale of 0 to 10 where 0 is no effect and 10 is complete control
[5] = Preemergence, Rate 250 g/ha, scale 0 to 10, 0 is no effect, 10 is complete control
[6] = Preemergence, Rate 500 g/ha, scale 0 to 10, 0 is no effect, 10 is complete control
[7] = Rate 62 g/ha, Postemergence, scale 0 to 10 (0 no effect, 10 complete control)
[8] = Rate 125 g/ha, Postemergence, scale 0 to 10, 0 is no effect, 10 is complete control
[9] = Rate 62 g/ha, flood test species, Pre-emergence, visual evaluation after twelve to sixteen days
[10] = Rate 125 g/ha, under heading Pre-emergence, flood test species, visual evaluation after twelve to sixteen days
[11] = Rate 250 g/ha, Pre-emergence (flood test species), scale 0 to 10, 0 is no effect, 10 is complete control
[12] = Rate 500 g/ha, Pre-emergence, flood test species, scale 0 to 10 (0 no effect, 10 complete control)

CC(C)N(C(=O)n1oc(=O)n(CO)c1=O)c1ccc(Cl)cc1 [Compound 457]
Blackgrass plant response rating (blackgrass; [1]): 0
Blackgrass plant response rating (blackgrass; [2]): 0
Plant response rating, Blackgrass (blackgrass; [3]): 0
Plant response rating, Blackgrass (blackgrass; [4]): 0
Blackgrass plant response rating (blackgrass; [5]): 0
Blackgrass plant response rating (blackgrass; [6]): 0
Blackgrass plant response rating (blackgrass; [7]): 0
Blackgrass plant response rating (blackgrass; [8]): 0
Wheat plant response rating (wheat; [1]): 0
Plant response rating, Wheat (wheat; Preemergence, Rate 62 g/ha): 0
Plant response rating, Wheat (wheat; Preemergence, Rate 125 g/ha): 0
Wheat plant response rating (wheat; [5]): 0
Wheat plant response rating (wheat; [6]): 0
Wheat plant response rating (wheat; [7]): 0
Wheat plant response rating (wheat; [8]): 0
Crabgrass plant response rating (crabgrass; [1]): 0
Crabgrass plant response rating (crabgrass; [2]): 0
Plant response rating, Crabgrass (crabgrass; [3]): 0
Plant response rating, Crabgrass (crabgrass; [4]): 0
Crabgrass plant response rating (crabgrass; [5]): 0
Crabgrass plant response rating (crabgrass; [6]): 0
Crabgrass plant response rating (crabgrass; [7]): 0
Crabgrass plant response rating (crabgrass; [8]): 0
Corn plant response rating (corn; [1]): 0
Corn plant response rating (corn; [2]): 0
Plant response rating, Corn (corn; [3]): 0
Plant response rating, Corn (corn; [4]): 0
Corn plant response rating (corn; [5]): 0
Corn plant response rating (corn; [6]): 0
Corn plant response rating (corn; [7]): 0
Corn plant response rating (corn; [8]): 0
B. signalgrass plant response rating (surinam grass; Postemergence, Rate 250 g/ha, scale 0 to 10, 0 no effect, 10 complete control): 0
B. signalgrass plant response rating (surinam grass; [2]): 0
Plant response rating, B. signalgrass (surinam grass; [3]): 0
Plant response rating, B. signalgrass (surinam grass; [4]): 0
B. signalgrass plant response rating (surinam grass; [5]): 0
B. signalgrass plant response rating (surinam grass; [6]): 0
B. signalgrass plant response rating (surinam grass; [7]): 0
B. signalgrass plant response rating (surinam grass; [8]): 0
Velvetleaf plant response rating (velvetleaf; [1]): 0
Plant response rating, Velvetleaf (velvetleaf; Preemergence, Rate 62 g/ha): 0
Plant response rating, Velvetleaf (velvetleaf; Preemergence, Rate 125 g/ha): 0
Velvetleaf plant response rating (velvetleaf; [5]): 0
Velvetleaf plant response rating (velvetleaf; [6]): 0
Velvetleaf plant response rating (velvetleaf; [7]): 0
Velvetleaf plant response rating (velvetleaf; [8]): 0
Sugarbeets plant response rating (sugar beet; [1]): 0
Plant response rating, Sugarbeets (sugar beet; Preemergence, Rate 62 g/ha): 0
Plant response rating, Sugarbeets (sugar beet; Preemergence, Rate 125 g/ha): 0
Sugarbeets plant response rating (sugar beet; [5]): 0
Sugarbeets plant response rating (sugar beet; [6]): 0
Sugarbeets plant response rating (sugar beet; [7]): 0
Sugarbeets plant response rating (sugar beet; [8]): 0
Plant response rating, Ducksalad (0 to 10 scale, 0 is no effect, 10 is complete control) (duck salad; [9]): 0
Ducksalad plant response rating (0 to 10 scale, 0 is no effect, 10 is complete control) (duck salad; [10]): 0
Ducksalad plant response rating (duck salad; [11]): 0
Ducksalad plant response rating (duck salad; [12]): 0
Plant response rating, S. Flatsedge (0 to 10 scale, 0 is no effect, 10 is complete control) (smallflower flatsedge; [9]): 0
S. Flatsedge plant response rating (0 to 10 scale, 0 is no effect, 10 is complete control) (smallflower flatsedge; [10]): 0
S. Flatsedge plant response rating (smallflower flatsedge; [11]): 0
S. Flatsedge plant response rating (smallflower flatsedge; [12]): 0
Cocklebur plant response rating (cocklebur; [1]): 0
Cocklebur plant response rating (cocklebur; [2]): 0
Plant response rating, Cocklebur (cocklebur; [3]): 0
Plant response rating, Cocklebur (cocklebur; [4]): 0
Cocklebur plant response rating (cocklebur; [5]): 0
Cocklebur plant response rating (cocklebur; [6]): 0
Cocklebur plant response rating (cocklebur; [7]): 0
Cocklebur plant response rating (cocklebur; [8]): 0
Nutsedge plant response rating (purple nutsedge; [1]): 0
Plant response rating, Nutsedge (purple nutsedge; Preemergence, Rate 62 g/ha): 0
Plant response rating, Nutsedge (purple nutsedge; Preemergence, Rate 125 g/ha): 0
Nutsedge plant response rating (purple nutsedge; [5]): 0
Nutsedge plant response rating (purple nutsedge; [6]): 0
Nutsedge plant response rating (purple nutsedge; [7]): 0
Nutsedge plant response rating (purple nutsedge; [8]): 0
Soybean plant response rating (soybean; [1]): 1
Plant response rating, Soybean (soybean; Preemergence, Rate 62 g/ha): 0
Plant response rating, Soybean (soybean; Preemergence, Rate 125 g/ha): 0
Soybean plant response rating (soybean; [5]): 0
Soybean plant response rating (soybean; [6]): 0
Soybean plant response rating (soybean; [7]): 0
Soybean plant response rating (soybean; [8]): 0
Bedstraw plant response rating (bedstraw; [5]): 0
Bedstraw plant response rating (bedstraw; [6]): 0
Bedstraw plant response rating (bedstraw; [7]): 0
Bedstraw plant response rating (bedstraw; [8]): 0
Plant response rating, Rice (0 to 10 scale, 0 is no effect, 10 is complete control) (rice; [9]): 0
Rice plant response rating (0 to 10 scale, 0 is no effect, 10 is complete control) (rice; [10]): 0
Rice plant response rating (rice; [11]): 0
Rice plant response rating (rice; [12]): 0
Wild oats plant response rating (wild oat; [1]): 0
Plant response rating, Wild oats (wild oat; Preemergence, Rate 62 g/ha): 0
Plant response rating, Wild oats (wild oat; Preemergence, Rate 125 g/ha): 0
Wild oats plant response rating (wild oat; [5]): 0
Wild oats plant response rating (wild oat; [6]): 0
Wild oats plant response rating (wild oat; [7]): 0
Wild oats plant response rating (wild oat; [8]): 0
Plant response rating, Barnyardgrass (0 to 10 scale, 0 is no effect, 10 is complete control) (bamyardgrass; [9]): 0
Barnyardgrass plant response rating (0 to 10 scale, 0 is no effect, 10 is complete control) (bamyardgrass; [10]): 0
Barnyardgrass plant response rating (bamyardgrass; [11]): 0
Barnyardgrass plant response rating (bamyardgrass; [12]): 0

— patent US6737383B1, “Herbicidal oxadiazolidines” (priority 1999, dated 2004)
